Values after ≈ are worked out from the molar mass of the structure shown.
Tests used:
Type in all cases: cell-based
PGE2 = assay: Mat Tek PGE2 tissue model, anti-inflammatory activity; conditions: dentifrice slurry 1:4 in PBS, base dentifrice with 1% active; 2 minutes treatment; IL-β about 10 ng/ml
Procedure: Anti-inflammatory activity of IPM is evaluated using the Mat Tek PGE2 tissue model.
One (1) mL of tissue culture media (supplied by MatTek) is added to each well of a 6-well plate (×4). The plate is incubated overnight (37° C., 5% CO2). Treatment solutions comprising the dentifrice slurries are prepared, wherein the base dentifrice contains 1% isopropyl magnolol. Slurries of the dentifrices are prepared in a 1:4 ratio by weight of dentifrice:phosphate buffered saline (PBS). Slurries are placed on a stir plate for a minimum of 30 minutes to allow the solution to fully homogenize.
The tissue media is prepared by adding IL-β from a frozen stock solution to the tissue culture media. The final concentration of IL-β in the media is about 10 ng/ml.
1 ml of tissue culture media containing IL-β is added to each well of a 6-well plate (×4). […] of treatment solution is then added to the surface of the tissue and let sit for 2 minutes. The treatment solution is removed by aspiration.
The tissue is then washed using about 200 μl of PBS. PBS is then removed by aspiration, and the process is repeated for a total of 3 washes.
Tissue is then transferred the original 6-well plates to new 6-well plates with media containing IL-β. The plates are incubated (37° C., 5% CO2) for between 7 and 24 hours, depending on the active or dentifrice being tested.
The used media from the old 6-well plates is pipetted into a single 24-well plate, for use as a baseline sample. The plates are removed from the incubator and the used media is pipetted from the 6-well plates into a single 24-well plate, for use as a reference sample for the designated time point. The results of this assay are described in Table 3 (below).

Actinomyces viscosus = assay: Minimum Inhibitory Concentration (MIC), two-fold dilutions in trypticase soy broth; conditions: 18-24 hours of incubation
Procedure: (§1) Minimum Inhibitory Concentration (MIC) values are determined generally according to the following method: A series of two-fold dilutions in trypticase soy broth (Catalog No. 211768; Becton Dickinson, Franklin Lakes N.J.) are prepared in a 96 well plate and a constant amount of bacteria is then added to each well. After 18-24 hours of incubation, bacterial growth is measured with a Spectrophotometric Micro-plate Reader (Powerwave 5×, BioTEK, Winooski Vt.) and the MIC values are determined.
(§2) Table 4 (below) describes the antibacterial efficacy of isopropyl magnolol against various oral pathogens.

Fusobcaterium nucleatum = assay: as above
Procedure: as §1, §2

Streptoccus mutans = assay: as above
Procedure: as §1, §2

Streptococcus sanguis = assay: as above; conditions: 18-24 hours of incubation
Procedure: as §1, §2

A. actinomycetemcomitans = assay: as above; conditions: Aggregatibacter actinomycetemcomitans, 18-24 hours of incubation
Procedure: as §1, §2

CCCCc1ccc(O)c(-c2cc(CCCC)ccc2O)c1 [Butyl magnolol]
PGE2 reduction (%) (PGE2): 29.98%

C=CCc1ccc(O)c(-c2cc(CC=C)ccc2O)c1 [Magnolol, 5,5′-Diallyl-biphenyl-2,2′-diol]
PGE2 reduction (%) (PGE2): 88.23% | MIC (Actinomyces viscosus): 15.6 µg/mL (≈ 58.6 µM) | MIC (Fusobcaterium nucleatum): 7.8 µg/mL (≈ 29.3 µM) | MIC (Streptoccus mutans): 15.6 µg/mL (≈ 58.6 µM) | MIC (Streptococcus sanguis): 15.6 µg/mL (≈ 58.6 µM) | MIC (A. actinomycetemcomitans): 15.6 µg/mL (≈ 58.6 µM)

CC(C)c1ccc(O)c(-c2cc(C(C)C)ccc2O)c1 [Isopropyl magnolol, 5,5′-diisopropyl-2,2′-dihydroxy biphenol]
PGE2 reduction (%) (PGE2): 90.88% | MIC (Actinomyces viscosus): 3.9 µg/mL (≈ 14.4 µM) | MIC (Fusobcaterium nucleatum): 0.97 µg/mL (≈ 3.59 µM) | MIC (Streptoccus mutans): 3.9 µg/mL (≈ 14.4 µM) | MIC (Streptococcus sanguis): 1.95 µg/mL (≈ 7.21 µM) | MIC (A. actinomycetemcomitans): 3.9 µg/mL (≈ 14.4 µM)

Source: US9795548B2, “Oral care compositions” (Colgate-Palmolive Company, priority 2012, dated 2017)
